In US6255073A (priority 1998, dated 2001):

T1: K^b sol (Mus musculus, UniProt P01901)
T1 sequence (P01901 22-305 limits assumed): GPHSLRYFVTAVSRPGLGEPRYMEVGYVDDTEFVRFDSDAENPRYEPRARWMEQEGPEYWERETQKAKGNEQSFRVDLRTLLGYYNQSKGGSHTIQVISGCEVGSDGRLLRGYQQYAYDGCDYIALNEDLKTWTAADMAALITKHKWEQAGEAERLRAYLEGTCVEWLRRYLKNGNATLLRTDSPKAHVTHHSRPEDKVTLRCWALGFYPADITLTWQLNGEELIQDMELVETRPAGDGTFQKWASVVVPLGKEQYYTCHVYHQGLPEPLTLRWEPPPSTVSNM
T1 sequence (P01887 21-119 partner): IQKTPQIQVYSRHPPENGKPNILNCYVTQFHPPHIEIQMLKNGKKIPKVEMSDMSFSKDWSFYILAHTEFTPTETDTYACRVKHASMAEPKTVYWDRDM

B1: ovalbumin (protein, UniProt P01012 2-386, looked up)
Ovalbumin: GSIGAASMEFCFDVFKELKVHHANENIFYCPIAIMSALAMVYLGAKDSTRTQINKVVRFDKLPGFGDSIEAQCGTSVNVHSSLRDILNQITKPNDVYSFSLASRLYAEERYPILPEYLQCVKELYRGGLEPINFQTAADQARELINSWVESQTNGIIRNVLQPSSVDSQTAMVLVNAIVFKGLWEKAFKDEDTQAMPFRVTEQESKPVQMMYQIGLFRVASMASEKMKILELPFASGTMSMLVLLPDEVSGLEQLESIINFEKLTEWTSSNVMEERKIKVYLPRMKMEEKYNLTSVLMAMGITDVFSSSANLSGISSAESLKISQAVHAAHAEINEAGREVVGSAEAGVDAASVSEEFRADHPFLFCIKHIATNAVLFFGRCVSP
notes: ovalbumin (Sigma Chem. Co.) osmotically loaded into the cells

Experiments:
K^b sol = biological target: T1, K^b sol; test: biochemical; conditions: read-out: dissociation rate constant
B3/CD8 T-cell hybridoma = test: Antigen presentation assay: K^b/β2 Drosophila cells cocultured with T-cell hybridoma B3/CD8, IL-2 by CTLL 3H thymidine incorporation; type: cell-based, murine; conditions: Drosophila cells transfected with K^b/β2; peptide added to medium or protein osmotically loaded
Protocol: Osmotic loading of SC2 and 3T3 cells with ovalbumin protein was carried out as described by Moore, et al., Cell 54: 777-785 (1988). The assay procedure is as follows. In a 96-well dish, 1×10^5 Drosophila cells (with or without peptide/protein loaded) or 3T3 cells were cocultured with 1×10^5 B3/CD8 T-cell hybridoma cells in 200 μl of RPMI media supplemented with 10 fetal bovine serum. After 24 hours of incubation, 100 μl of the supernatant from these cultures was added to 100 μl of RPMI containing 5,000 CTLL cells. The cells were cocultured for 24 hours at 37° C. when 1 μCi of ^3 H thymidine (Amersham) was added. After a further incubation of 15 hours at 37° C., the incorporation of radiolabel into the CTLL cells was determined by scintillation counting.
Assays conducted with murine MHC also verified that the insect cells are capable of loading peptide onto the Class I molecules. Cells expressing as few as 200-500 MHC molecules containing a particular antigen can be detected by a T-cell. […] Upon antigenic stimulation, B3/CD8 produces IL-2, measured by ^3 H thymidine incorporation in IL-2-dependenT-cell line CTLL (Gillis, et al., J. Immunol. 120: 2027 91978)). Thus, by measuring the amount of IL-2 produced, one can assay for T-cell recognition. […]

| Molecule | koff (K^b sol) | T-cell recognition (IL-2 production by B3/CD8) (B3/CD8 T-cell hybridoma) |
| --- | --- | --- |
| CC(C)C[C@H](NC(=O)CNC(=O)[C@H](CCC(N)=O)NC(=O)[C@H](Cc1ccc(O)cc1)NC(=O)[C@@H](NC(=O)[C@H](Cc1ccc(O)cc1)NC(=O)CNC(=O)[C@@H](N)CCCNC(=N)N)C(C)C)C(=O)O [[^125 I]VSV-8] | 0.00032 s⁻¹ |  |
| B1 |  | no recognition occurred |
